The text below walks through data of patent US10093656B2, “Fused-ring or tricyclic aryl pyrimidine compound used as kinase inhibitor” (NANJING SANHOME PHARMACEUTICAL CO., LTD, priority 2015, dated 2018).

In test [1] the test system is NCI-H1975 cells EGFR L858R/T790M. Kind of test: NCI-H1975 cell viability assay (Cell Titer-Glo, 6 days). Format: cell-based. The settings on record: Homo sapiens, 144 h. On the procedure: (§1) RPMI1640, fetal bovine serum, penicillin/streptomycin solution were purchased from Life Technology (Madison, Wis.). Cell Titer-Glo luminescent cell viability reagents were purchased from Promega (Madison, Wis.). A431 cell line and NCI-H1975 cell line were purchased from European Collection of Cell Cultures (ECACC). Plate Reader Instrument: Envision (PerkinElmer).
(§2) 384-Well plates, 300 of A431 cells and NCI-H1975 cells were inoculated per well, a volume of which was 45 μL. And the plates were incubated overnight in a CO2 incubator at 37° C. The test compound was diluted 3-fold to obtain 10 dose concentrations, the final concentrations of which were from 10 μM to 0.508 nM, two wells. The middle plates were filled with 49 μL of medium per well. 1 μL of compound in the gradient dilution compound plates was transferred to the middle plates and mixed well. And then 5 μL liquid in the middle plates was taken to the cell plates. The cells were incubated in a CO2 incubator for 6 days. After 6 days, 25 μL of detection reagents was added. And then the mixture was incubated at room temperature for 10 minutes and the plates were read by Envision.
(§3) The reading is converted to the suppression rate by the following formula (%) (Max-Sample)/(Max-Min)*100%. IC50 Data was measured by Four-parameter curve fitting (Model 205 in XLFIT5, IDBS).

The next test has as its target T1, EGFR d746-750/T790M (Homo sapiens, UniProt P00533, DEL746-750/T790M).
T1 construct: purchased Carna Biosciences (Japan)
Description: EGFR d746-750/T790M enzyme HTRF inhibition assay. Format: biochemical. The settings on record: 40 μM ATP. How it is done:
(§4) Enzyme: EGFR wild type, EGFR T790M/L858R, EGFR T790M and INSR were purchased from Life technology (Madison, Wis.), EGFR d746-750/T790M was purchased from Carna Biosciences (Japan).
(§5) HTRF Kit was purchased from Cis-Bio International which contained the Eu-labeled TK1 antibody, XL665 and biotin-labeled TK1 polypeptide substrates.
(§6) Detecting instrument: Envision (PerkinElmer).
(§7) The test compound was diluted 3-fold to obtain 10 doses of which the final concentration was from 300 nM to 0.015 nM.
EGFR d746-750/T790M Enzyme Reaction Mixture System:
0.025 nM EGFR d746-750/T790M, 1 μM biotin-TK1 peptide, 40 μM ATP enzyme buffer, a total of which was 10 μL. The reaction plate was white Proxiplate 384-Plus plate (PerkinElmer) and the mixture was reacted at 23° C. for 60 minutes.
(§8) Reaction Detection: 10 μL of detection reagent containing Antibody 2 nM and XL665 62.5 nM was added, and the reagent was incubated at 23° C. for 60 minutes. The plates were read by Envision.
(§9) The reading is converted to the suppression rate (%) by the following formula […]/(Max-Min)*100%. IC50 Data was measured by four-parameter curve fitting (Model 205 in XLFITS, IDBS).
In general terms: TR-FRET usually uses a lanthanide donor and a delayed reading to cut background.

A further test concerns the target T2, EGFR T790M/L858R (Homo sapiens, UniProt P00533, L858R/T790M).
T2 construct: purchased Life technology (Madison, Wis.)
Kind of test: EGFR T790M/L858R enzyme HTRF inhibition assay. Format: biochemical. The settings on record: 20 μM ATP, read-out: EGFR L858R/T79M IC50. On the procedure: as §4, §5, §6, §7
EGFR T790M/L858R Enzyme Reaction Mixture System:
0.04 nM EGFR T790M/L858R, 1 μM biotin-TK1 peptide, 20 μM ATP enzyme buffer, a total of which was 10 μL. The reaction plate was white Proxiplate 384-Plus plate (PerkinElmer) and the mixture was reacted at 23° C. for 60 minutes.
as §8, §9

Another test deals with T3, EGFR wild type (Homo sapiens, UniProt P00533).
T3 construct: purchased Life technology (Madison, Wis.)
Kind of test: Wild-type EGFR enzyme HTRF inhibition assay. In kind it is biochemical. The settings on record: 25 μM ATP, read-out: EGFR WT IC50. On the procedure: as §4, §5, §6, §7
Wild-Type EGFR Enzyme Reaction Mixture System:
0.05 nM Wild-type EGFR, 1 μM biotin-TK1 peptide, 25 μM ATP enzyme buffer, a total of which was 10 μL. The reaction plate was white Proxiplate 384-Plus plate (PerkinElmer) and the mixture was reacted at 23° C. for 60 minutes.
as §8, §9

The subject of the next test is A431 cells EGFR WT. Kind of test: A431 cell viability assay (Cell Titer-Glo, 6 days). In kind it is cell-based, human. The settings on record: for IC50: Homo sapiens, A-431, 144 h, A431 cells, 6 days; for A431:NCI-H1975 (ratio): ratio of cell IC50 A431 to NCI-H1975. On the procedure: as §1, §2, §3

T2 sequence (P00533 25-1210 T790M/L858R): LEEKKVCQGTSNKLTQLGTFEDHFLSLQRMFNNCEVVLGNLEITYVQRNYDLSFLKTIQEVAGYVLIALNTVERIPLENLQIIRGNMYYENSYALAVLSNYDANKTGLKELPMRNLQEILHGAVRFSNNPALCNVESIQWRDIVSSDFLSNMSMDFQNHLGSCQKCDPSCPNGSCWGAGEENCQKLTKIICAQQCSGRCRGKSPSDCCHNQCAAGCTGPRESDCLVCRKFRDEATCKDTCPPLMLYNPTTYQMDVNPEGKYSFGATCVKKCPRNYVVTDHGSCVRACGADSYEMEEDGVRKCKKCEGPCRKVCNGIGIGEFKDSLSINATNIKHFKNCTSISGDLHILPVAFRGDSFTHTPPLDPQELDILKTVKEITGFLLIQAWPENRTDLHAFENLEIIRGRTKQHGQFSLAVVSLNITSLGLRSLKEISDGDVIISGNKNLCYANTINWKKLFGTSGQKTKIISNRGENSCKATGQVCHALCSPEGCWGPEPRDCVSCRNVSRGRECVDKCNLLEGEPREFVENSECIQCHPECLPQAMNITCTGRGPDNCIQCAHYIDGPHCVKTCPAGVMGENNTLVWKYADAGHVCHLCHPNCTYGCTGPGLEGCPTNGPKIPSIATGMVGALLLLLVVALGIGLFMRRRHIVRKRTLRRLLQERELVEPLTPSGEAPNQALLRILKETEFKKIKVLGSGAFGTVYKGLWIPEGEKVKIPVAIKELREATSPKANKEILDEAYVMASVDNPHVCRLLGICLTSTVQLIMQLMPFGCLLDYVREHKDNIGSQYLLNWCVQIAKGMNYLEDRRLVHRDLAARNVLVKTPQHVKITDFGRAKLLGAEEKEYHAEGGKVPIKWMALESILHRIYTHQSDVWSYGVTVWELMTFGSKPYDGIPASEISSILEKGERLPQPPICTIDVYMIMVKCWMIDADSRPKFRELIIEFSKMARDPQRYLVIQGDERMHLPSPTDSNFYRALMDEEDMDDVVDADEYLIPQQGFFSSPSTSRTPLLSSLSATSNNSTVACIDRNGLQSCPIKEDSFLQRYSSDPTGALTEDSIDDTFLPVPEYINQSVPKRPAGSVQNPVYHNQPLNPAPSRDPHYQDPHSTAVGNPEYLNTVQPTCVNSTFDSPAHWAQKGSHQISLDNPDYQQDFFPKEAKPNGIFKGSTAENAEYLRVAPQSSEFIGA
T1 sequence (P00533 with tags, fused parts or gaps DEL746-750/T790M limits assumed): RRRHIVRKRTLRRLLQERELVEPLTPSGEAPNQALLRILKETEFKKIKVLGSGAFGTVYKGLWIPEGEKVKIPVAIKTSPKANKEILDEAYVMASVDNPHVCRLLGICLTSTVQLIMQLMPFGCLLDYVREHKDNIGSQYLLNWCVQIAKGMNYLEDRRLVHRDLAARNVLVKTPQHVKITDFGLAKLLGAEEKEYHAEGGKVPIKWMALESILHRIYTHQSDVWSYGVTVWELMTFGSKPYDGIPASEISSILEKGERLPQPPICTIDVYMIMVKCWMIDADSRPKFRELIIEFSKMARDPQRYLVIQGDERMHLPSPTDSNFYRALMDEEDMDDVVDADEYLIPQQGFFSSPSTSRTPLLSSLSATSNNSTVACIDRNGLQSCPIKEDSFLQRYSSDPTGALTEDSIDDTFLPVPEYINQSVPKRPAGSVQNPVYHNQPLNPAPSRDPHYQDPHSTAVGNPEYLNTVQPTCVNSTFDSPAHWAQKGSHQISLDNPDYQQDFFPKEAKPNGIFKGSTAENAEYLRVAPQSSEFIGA
T3 sequence (P00533 25-1210): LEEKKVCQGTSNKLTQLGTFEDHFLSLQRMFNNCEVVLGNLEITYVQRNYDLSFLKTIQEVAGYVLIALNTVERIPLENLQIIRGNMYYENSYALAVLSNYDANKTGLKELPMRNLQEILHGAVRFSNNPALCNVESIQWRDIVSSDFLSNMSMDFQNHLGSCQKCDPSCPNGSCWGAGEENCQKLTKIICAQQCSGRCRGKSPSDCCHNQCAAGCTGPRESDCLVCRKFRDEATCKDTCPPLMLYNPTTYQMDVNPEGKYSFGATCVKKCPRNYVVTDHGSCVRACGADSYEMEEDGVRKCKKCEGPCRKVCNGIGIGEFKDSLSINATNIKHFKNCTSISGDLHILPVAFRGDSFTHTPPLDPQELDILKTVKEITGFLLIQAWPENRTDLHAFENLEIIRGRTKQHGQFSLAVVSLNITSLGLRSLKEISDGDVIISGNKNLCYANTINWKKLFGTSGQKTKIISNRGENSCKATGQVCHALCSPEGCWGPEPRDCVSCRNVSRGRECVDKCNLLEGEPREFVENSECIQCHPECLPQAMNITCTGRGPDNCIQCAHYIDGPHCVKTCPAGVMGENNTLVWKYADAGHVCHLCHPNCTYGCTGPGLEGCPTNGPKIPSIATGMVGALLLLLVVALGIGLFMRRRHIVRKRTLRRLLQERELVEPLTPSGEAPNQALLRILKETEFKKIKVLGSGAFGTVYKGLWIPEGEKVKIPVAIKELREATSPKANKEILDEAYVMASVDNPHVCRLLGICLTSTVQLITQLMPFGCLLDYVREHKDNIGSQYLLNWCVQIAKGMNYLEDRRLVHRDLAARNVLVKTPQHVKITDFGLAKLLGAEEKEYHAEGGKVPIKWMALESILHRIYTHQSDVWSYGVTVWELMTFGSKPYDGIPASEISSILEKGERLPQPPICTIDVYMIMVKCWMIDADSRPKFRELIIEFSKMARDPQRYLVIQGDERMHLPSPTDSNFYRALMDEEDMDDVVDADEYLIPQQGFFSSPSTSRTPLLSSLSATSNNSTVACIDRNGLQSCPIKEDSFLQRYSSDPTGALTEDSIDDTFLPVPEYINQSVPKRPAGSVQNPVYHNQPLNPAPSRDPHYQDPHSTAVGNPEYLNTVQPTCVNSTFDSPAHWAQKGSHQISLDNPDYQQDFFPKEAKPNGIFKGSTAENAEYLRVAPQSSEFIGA

Consider `C=CC(=O)Nc1cc(Nc2nccc(-c3c4n(c5ccc(F)cc35)CCC4)n2)c(OC)cc1N(C)CCN(C)C` [Embodiment 13, N-(2-((2-(Dimethylamino)ethyl)(methyl)amino)-5-((4-(7-fluoro-2,3-dihydro-1H-pyrrolo[1,2-a]indol-9-yl)pyrimidin-2-yl)amino)-4-methoxyphenyl) acrylamide], for which the IC50 in test [1] stood at 5.4 nM; at EGFR d746-750/T790M it was 0.18 nM; at EGFR T790M/L858R, 0.24 nM; on EGFR wild type, 0.65 nM; in the test with A431 cells EGFR WT it was 545 nM. Further, the “A431:NCI-H1975 (ratio)” value with A431 cells EGFR WT is recorded as 101.0.
For `C=CC(=O)Nc1cc(Nc2nccc(-c3c4n(c5ccccc35)CC(F)(F)CC4)n2)c(OC)cc1N(C)CCN(C)C` [Embodiment 14, N-(5-((4-(7,7-Difluoro-8,9-dihydro-6H-pyrido[1,2-a]indol-10-yl)pyrimidin-2-yl)amino)-2-((2-(dimethylamino)ethyl)(methyl)amino)-4-methoxyphenyl)acrylamide], the IC50 in test [1] came to 13 nM; at EGFR d746-750/T790M, 0.33 nM; on EGFR T790M/L858R it was 0.27 nM; on EGFR wild type it was 0.6 nM; in the test with A431 cells EGFR WT, 134 nM. For the same molecule, the “A431:NCI-H1975 (ratio)” value in the test on A431 cells EGFR WT was 10.3.
Turning to `C=CC(=O)Nc1cc(Nc2nccc(-c3c4n(c5ccccc35)CCCC4)n2)c(OC)cc1N(C)CCN(C)C` [Embodiment 15, N-(2-((2-(Dimethylamino)ethyl)(methyl)amino)-4-methoxy-5-((4-(6,7,8,9-tetrahydropyrido[1,2-a]indol-10-yl)pyrimidin-2-yl)amino)phenyl)acrylamide], the IC50 came out at 15 nM in test [1]; 0.37 nM against EGFR d746-750/T790M; 0.36 nM on EGFR T790M/L858R; 1.03 nM on EGFR wild type; 230 nM with A431 cells EGFR WT. For the same molecule, in the test on A431 cells EGFR WT, the “A431:NCI-H1975 (ratio)” value is 15.3.
As to `C=CC(=O)Nc1cc(Nc2nccc(-c3c4n(c5ccccc35)CCOC4)n2)c(OC)cc1N(C)CCN(CC)CC` [Embodiment 16, N-(2-((2-(Diethylamino)ethyl)(methyl)amino)-5-((4-(3,4-dihydro-1H-[1,4]oxazino[4,3-a]indol-10-yl)pyrimidin-2-yl)amino)-4-methoxyphenyl)acrylamide], the IC50 in test [1] worked out at 17 nM; on EGFR d746-750/T790M, 0.33 nM; on EGFR T790M/L858R, 0.29 nM; at EGFR wild type it was 4 nM; in the test with A431 cells EGFR WT, 1060 nM. Moreover, the “A431:NCI-H1975 (ratio)” value with A431 cells EGFR WT came to 63.
As to `C=CC(=O)Nc1cc(Nc2nccc(-c3c4n(c5ccccc35)CCOC4)n2)c(OC)cc1N(CC)CCN(C)C` [Embodiment 19, N-(5-((4-(3,4-Dihydro-1H-[1,4]oxazino[4,3-a]indol-10-yl)pyrimidin-2-yl)amino)-2-((2-(dimethylamino)ethyl)(ethyl)amino)-4-methoxyphenyl)acrylamide], the IC50 stood at 29 nM in test [1]; 0.26 nM against EGFR d746-750/T790M; 0.3 nM on EGFR T790M/L858R; 2.7 nM at EGFR wild type; 965 nM with A431 cells EGFR WT. Moreover, the “A431:NCI-H1975 (ratio)” value in the test with A431 cells EGFR WT was determined as 33.
`C=CC(=O)Nc1cc(Nc2nccc(-c3c4n(c5ccccc35)CCOC4)n2)c(OC)cc1N(C)C(C)CN(C)C` (stereo not drawn) [Embodiment 20, N-(5-((4-(3,4-Dihydro-1H-[1,4]oxazino[4,3-a]indol-10-yl)pyrimidin-2-yl)amino)-2-((1-(dimethylamino)propan-2-yl)(methyl)amino)-4-methoxyphenyl)acrylamide]: the IC50 in test [1] was 4 nM; on EGFR d746-750/T790M, 0.17 nM; at EGFR T790M/L858R, 0.2 nM; on EGFR wild type, 0.66 nM; with A431 cells EGFR WT it was 164 nM. In addition, the “A431:NCI-H1975 (ratio)” value in the test with A431 cells EGFR WT is on record as 41.0.
With `C=CC(=O)Nc1cc(Nc2nccc(-c3c4n(c5ccccc35)CCOC4)n2)c(OC)cc1N(C)CCNC(C)(C)C` [Embodiment 24, N-(2-((2-(tert-Butylamino)ethyl)(methyl)amino)-5-((4-(3,4-dihydro-1H-[1,4]oxazino[4,3-a]indol-10-yl)pyrimidin-2-yl)amino)-4-methoxyphenyl)acrylamide], the IC50 in test [1] was found to be 172 nM; on EGFR d746-750/T790M, 1.3 nM; on EGFR T790M/L858R, 1.9 nM; at EGFR wild type, 36.4 nM; in the test on A431 cells EGFR WT, 2660 nM. The “A431:NCI-H1975 (ratio)” value with A431 cells EGFR WT is on record as 15.
As for `C=CC(=O)Nc1cc(Nc2nccc(-c3c4n(c5ccccc35)CCOC4)n2)c(OCC)cc1N(C)CCN(C)C` [Embodiment 28, N-(5-((4-(3,4-Dihydro-1H-[1,4]oxazino[4,3-a]indol-10-yl)pyrimidin-2-yl)amino)-2-((2-(dimethylamino)ethyl)(methyl)amino)-4-ethoxyphenyl)acrylamide], the IC50 in test [1] came out at 11 nM; against EGFR d746-750/T790M it was 0.2 nM; at EGFR T790M/L858R, 0.2 nM; at EGFR wild type it was 1.5 nM; in the test on A431 cells EGFR WT it was 517 nM. Also, the “A431:NCI-H1975 (ratio)” value in the test on A431 cells EGFR WT worked out at 47.
With `C=CC(=O)Nc1cc(Nc2nccc(-c3c4n(c5ccccc35)CCOC4)n2)c(OC(C)C)cc1N(C)CCN(C)C` [Embodiment 29, N-(5-((4-(3,4-Dihydro-1H-[1,4]oxazino[4,3-a]indol-10-yl)pyrimidin-2-yl)amino)-2-((2-(dimethylamino)ethyl)(methyl)amino)-4-isopropoxyphenyl)acrylamide], the IC50 stood at 25 nM in test [1]; 0.38 nM against EGFR d746-750/T790M; 0.38 nM at EGFR T790M/L858R; 5.1 nM on EGFR wild type; 1180 nM in the test with A431 cells EGFR WT. Further, the “A431:NCI-H1975 (ratio)” value in the test on A431 cells EGFR WT is recorded as 47.
For `C=CC(=O)Nc1cc(Nc2ncc(F)c(-c3c4n(c5ccccc35)CCOC4)n2)c(OC)cc1N(C)CCNC` [Embodiment 31, N-(5-((4-(3,4-Dihydro-1H-[1,4]oxazino[4,3-a]indol-10-yl)-5-fluoropyrimidin-2-yl)amino)-4-methoxy-2-(methyl(2-(methylamino)ethyl)amino)phenyl)acrylamide], the IC50 was 96 nM in test [1]; 0.3 nM at EGFR d746-750/T790M; 0.2 nM on EGFR T790M/L858R; 2 nM on EGFR wild type; 1290 nM in the test with A431 cells EGFR WT. Besides, the “A431:NCI-H1975 (ratio)” value in the test with A431 cells EGFR WT came out at 13.4.
For `C=CC(=O)Nc1cc(Nc2ncc(F)c(-c3c4n(c5ccccc35)CCOC4)n2)c(OC)cc1N(C)CC(C)(C)N(C)C` [Embodiment 32, N-(5-((4-(3,4-Dihydro-1H-[1,4]oxazino[4,3-a]indol-10-yl)-5-fluoropyrimidin-2-yl)amino)-2-((2-(dimethylamino)-2-methylpropyl)(methyl)amino)-4-methoxyphenyl)acrylamide], the IC50 came to 3 nM in test [1]; 0.2 nM on EGFR d746-750/T790M; 0.1 nM at EGFR T790M/L858R; 0.3 nM on EGFR wild type; 597 nM in the test with A431 cells EGFR WT. For the same molecule, the “A431:NCI-H1975 (ratio)” value in the test on A431 cells EGFR WT stood at 199.
In the case of `C=CC(=O)Nc1cc(Nc2ncc(F)c(-c3c4n(c5c(OC)cccc35)CCOC4)n2)c(OC)cc1N(C)CCN(C)C` [Embodiment 35, N-(2-((2-(Dimethylamino)ethyl)(methyl)amino)-5-((5-fluoro-4-(6-methoxy-3,4-dihydro-1H-[1,4]oxazino[4,3-a]indol-10-yl)pyrimidin-2-yl)amino)-4-methoxyphenyl)acrylamide], the IC50 was found to be 107 nM in test [1]; 0.6 nM on EGFR d746-750/T790M; 1.2 nM at EGFR T790M/L858R; 1.5 nM on EGFR wild type; 971 nM in the test with A431 cells EGFR WT. Also, the “A431:NCI-H1975 (ratio)” value in the test with A431 cells EGFR WT is recorded as 9.1.
